The test system of assay [1] is PPO2_F420I Mutant sunflower. The assay can be described thus: Field PPO cross-tolerance trial, mutant (Example 8). Type of assay: in vivo. Conditions: MSO 1% v/v. The protocol: (§1) A field trial was carried out to assess PPO cross-tolerance in non-introgressed, selfed, homozygous PPO2_F4201 mutants, as well as to assess tolerance differences using increasing rates of herbicides listed in Table 5. The field trial was done in Utrera, Spain, in September of 2021.
(§2) Herbicide treatments (Table 5) were applied in the field when plants had the BBCH12-14 growth stage (2-4 leaves). The field trial design was the randomized complete block design, and 1 replication was considered due to limitation in seed availability. Two entries were used in the field trial, the WT line and the PPO2_F4201 mutant. The experimental plot consisted of 1 entry per plot and 1 row per entry.
(§3) Phytotoxicity of mutant and WT entries was recorded over time, at 6, 11 and 14 DAT, where 100% phytotoxicity indicates complete control (dead plants), and 0% phytotoxicity indicates no control or alive plants without any herbicide injury.

Assay [2] has as its system wild type (WT) sunflower line (RHA473). The assay is described as follows: Greenhouse PPO cross-tolerance trial, wild type (Example 7). Type of assay: in vivo. The protocol: (§4) In August of 2021, a greenhouse herbicide trial was carried out in Zwijnaarde, Belgium. A homozygous PPO2_F4201 sunflower seed lot (HA452-M), and a wild type (WT) sunflower line (RHA473) were used in the greenhouse trial. Sixteen homozygous PPO2_F4201 mutant plants and six WT plants were sown and treated with each herbicide. […]

Assay [3] deals with homozygous PPO2_F4201 sunflower (HA452-M). The assay is described as follows: Greenhouse PPO cross-tolerance trial, mutant (Example 7). It counts as in vivo. The protocol:
as §4

The test system of assay [4] is Wild Type (WT) sunflower line. The assay is described as follows: Field PPO cross-tolerance trial, wild type (Example 8). Type of assay: in vivo. Conditions: for Phytotoxicity (%) Wild Type (WT) 6DAT / Phytotoxicity (%) Wild Type (WT) 11DAT / Phytotoxicity (%) Wild Type (WT) 14DAT: MSO 1% v/v. The protocol: as §1, §2, §3
Assay [5] relates to PPO2_F383I mutant PPO2 enzyme. The assay is described as follows: In vitro PPO inhibition assay, mutant enzyme (Example 5). The following applies: PPO2_F383I versus wild type IC50. It counts as biochemical, sunflower. The text has this: (§5) To test whether the PPO2_F383I is the main cause of the observed saflufenacil tolerance, we used an in vitro to compare the inhibition potency (IC50) of different PPO inhibiting herbicides between wild-type and mutant PPO2 enzyme. The in vitro assay assesses the oxidation of protoporphyrinogen IX to protoporphyrin IX, catalyzed by the PPO enzyme. Both the wild type and mutant PPO2 proteins were heterologously expressed in E. coli and purified. Purified protein was mixed with different concentrations of the herbicide ranging from 10^−5M to 10^−11M and protein activity was measured. Protein activity is defined as the fluorescence per minute that the reaction generates. In the reaction, the purified PPO enzyme is mixed with substrate protoporphyrinogen IX and the herbicide. The product of the reaction is excited at 405 nm and produces a fluorescence at 630 nm which we detect. IC50 (in Mol) and tolerance factor were calculated.

Assay [6] deals with PPO2_F383I mutant PPO2 enzyme (Helianthus annuus, UniProt A0A251TWC2, F383I). The description is as above. It counts as biochemical, sunflower.
From the text: as §5

The target of a further assay is wild-type PPO2 enzyme (Helianthus annuus, UniProt A0A251TWC2). The assay is described as follows: In vitro PPO inhibition assay, wild type enzyme (Example 5). Type of assay: biochemical, sunflower.
From the text: as §5

Broadly, the IC50 is the point on the concentration scale where inhibition reaches its midpoint.

Where two headings read alike, the source gives them in different places.

Chain of PPO2_F383I mutant PPO2 enzyme (Helianthus annuus, UniProt A0A251TWC2, F383I) (A0A251TWC2 entry or part of it F383I): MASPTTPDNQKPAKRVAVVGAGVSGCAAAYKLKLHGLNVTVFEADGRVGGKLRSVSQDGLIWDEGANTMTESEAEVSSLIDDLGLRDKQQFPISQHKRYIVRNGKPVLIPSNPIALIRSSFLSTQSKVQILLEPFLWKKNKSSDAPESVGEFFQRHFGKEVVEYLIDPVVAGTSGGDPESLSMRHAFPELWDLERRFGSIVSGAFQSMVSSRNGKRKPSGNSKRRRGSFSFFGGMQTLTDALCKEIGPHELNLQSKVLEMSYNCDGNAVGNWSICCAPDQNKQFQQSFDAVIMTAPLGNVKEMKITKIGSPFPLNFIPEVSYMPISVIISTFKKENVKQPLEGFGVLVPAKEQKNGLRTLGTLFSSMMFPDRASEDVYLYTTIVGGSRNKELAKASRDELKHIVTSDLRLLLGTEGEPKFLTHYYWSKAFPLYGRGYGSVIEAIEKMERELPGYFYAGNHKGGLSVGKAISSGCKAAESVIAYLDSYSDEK
Chain of wild-type PPO2 enzyme (A0A251TWC2 entry or part of it): as the sequence (A0A251TWC2 entry or part of it F383I) above, with I383F counted along it

Consider `C#CCN1C(=O)COc2cc(F)c(N3C(=O)C4=C(CCCC4)C3=O)cc21` [Flumioxazin], for which the “Phytotoxicity (%) PPO2_F420I Mutant 6DAT” value in assay [1] (45 g a.i./ha) was determined as 20%; in assay [1] (55 g a.i./ha), 30%; in assay [1] (65 g a.i./ha), 30%. In addition, the “Phytotoxicity (%) PPO2_F420I Mutant 11DAT” value in assay [1] (45 g a.i./ha) is reported as 20%; in assay [1] (55 g a.i./ha), 25%; in assay [1] (65 g a.i./ha), 30%. The “Phytotoxicity (%) PPO2_F420I Mutant 14DAT” value is listed as 10% in assay [1] (45 g a.i./ha), 15% in assay [1] (55 g a.i./ha) and 20% in assay [1] (65 g a.i./ha). Further, the “surviving WT plants” value in assay [2] (4 g/ha, 10 DAT) is “one”. The “phytotoxicity score of WT plants” value in assay [2] (dose as low as 4 g/ha, greenhouse) was 90-100%. In assay [3] (10 DAT), the “recovery of PPO2_F4201 plants after early phytotoxicity at 4 DAT” value was “consistent survival and recovery”. Besides, the “survival of PPO2_F4201 plants” value in assay [3] (all rates tested, MSO 1% v/v) was “survived at all rates”. The “Phytotoxicity (%) Wild Type (WT) 6DAT” value in assay [4] (45 g a.i./ha) is 80%; in assay [4] (55 g a.i./ha), 80%; in assay [4] (65 g a.i./ha), 85%. Besides, the results for the “Phytotoxicity (%) Wild Type (WT) 11DAT” value in assay [4] (45 g a.i./ha), in assay [4] (55 g a.i./ha) and in assay [4] (65 g a.i./ha) were 75%, 70% and 80%, respectively. Besides, the “Phytotoxicity (%) Wild Type (WT) 14DAT” value stood at 75% in assay [4] (45 g a.i./ha), 70% in assay [4] (55 g a.i./ha) and 80% in assay [4] (65 g a.i./ha). Moreover, in assay [4] (across flumioxazin rates (45, 55, 65 g a.i./ha)), the WT control level is on record as 75-80%.
`COC(=O)CCNC(=O)C(C)Sc1cc(-n2c(=O)cc(C(F)(F)F)n(C)c2=O)c(F)cc1Cl` (centres unmarked) [Tiafenacil] registered a Tolerance factor in assay [5] of 1398. Besides, the IC50 was found to be 1300 nM in assay [6] (purified enzyme expressed in E. coli, herbicide 10^-5 M to 10^-11 M, read-out: PPO2_F383I IC50) and 0.93 nM on wild-type PPO2 enzyme (purified enzyme expressed in E. coli, herbicide 10^-5 M to 10^-11 M, read-out: Wild type IC50).
`C#CCN1C(=O)C(F)(F)Oc2cc(F)c(-n3c(=O)n(C)c(=S)n(C)c3=O)cc21` [Trifludimoxazin (Tirexor ™), 1,5-dimethyl-6-thioxo-3-(2,2,7-trifluoro-3-oxo-4-(prop-2-ynyl)-3,4-dihydro-2H-benzo[b][1,4]oxazin-6-yl)-1,3,5-triazinane-2,4-dione] displayed a Tolerance factor in assay [5] of 3257. Moreover, the results for the IC50 (in assay [6]; against wild-type PPO2 enzyme) were 4560 nM and 1.4 nM, respectively.
